Measurements: the NIST ThermoML archive (doi:10.1021/je800672r)

Assay: wn = mass fraction of the nth substance listed
Conditions: Liquid

NCC(=O)[O-].[Na+] [sodium glycinate] + O
mass density [kg/m3]
Conditions	298.15 K	313.15 K	323.15 K	333.15 K	343.15 K	353.15 K
w1 = 0.01	1011.96	1002	–	996.72	990.16	985.36
w1 = 0.05	1015.92	1010.56	1005.12	1000.12	993.24	987.2
w1 = 0.1	1034.52	1029.68	1022.56	1017.56	1010.76	1005.32
w1 = 0.15	1055.6	1048.32	1042.92	1036.72	1030.08	1023.64
w1 = 0.2	1083.52	1076.44	1071	1066.48	1061.2	1054.48
w1 = 0.3	1130.4	1118	1112.76	1107.48	1101.44	1094.52
